Source: patent US20240158446A1, “CYCLIC COMPOUND HAVING SELECTIVE INHIBITORY ACTION ON KRAS OVER HRAS AND NRAS” (CHUGAI SEIYAKU KABUSHIKI KAISHA, priority 2021, published 2024)
pIC50: −log10 of the molar value. *1 amine or outer side, *2 acyl side, *3 side chain or, on linkers, in order; H or OH if unused. Where a SMILES comes first, the peptide text is derived from it. Bridges are numbered along the chain shown (N, C = ends). [ ]: non-standard residue; d: D form. The star is where a group is joined. X47 = CC(C)(C)CCN([C@@H](Cc1ccc(C(F)(F)F)cc1)C(=O)[*:2])[*:1]; hPhe(3-Cl-4-CF3) = N[C@@H](CCc1ccc(C(F)(F)F)c(Cl)c1)C(=O)O; X34 = Cc1ccc(C[C@@H](C(=O)[*:2])N(CCC(C)(C)C)[*:1])cc1; NPrPhe(4-CF3) = CCCN[C@@H](Cc1ccc(C(F)(F)F)cc1)C(=O)O; NMeGly(cPent) = CN[C@H](C(=O)O)C1CCCC1; NMeF = CN[C@@H](Cc1ccccc1)C(=O)O; NMeD = CN[C@@H](CC(=O)O)C(=O)O; NMeL = CN[C@@H](CC(C)C)C(=O)O; Pip = O=C(O)[C@@H]1CCCCN1; Morpholide = C1CN(*)CCO1; NMeA = CN[C@@H](C)C(=O)O; Ac5c = NC1(C(=O)O)CCCC1; Aze = O=C(O)[C@@H]1CCN1; Sar = CNCC(=O)O

Experiments:
[1] = target: GDP-bound NRAS wild-type protein (Homo sapiens, UniProt P01111); assay: Binding to NRAS by surface plasmon resonance (SPR), Single Cycle Kinetics; settings: SPR, GDP-bound NRAS wild-type protein vs GDP-bound KRAS wild-type protein
Chain of GDP-bound NRAS wild-type protein (P01111 whole entry): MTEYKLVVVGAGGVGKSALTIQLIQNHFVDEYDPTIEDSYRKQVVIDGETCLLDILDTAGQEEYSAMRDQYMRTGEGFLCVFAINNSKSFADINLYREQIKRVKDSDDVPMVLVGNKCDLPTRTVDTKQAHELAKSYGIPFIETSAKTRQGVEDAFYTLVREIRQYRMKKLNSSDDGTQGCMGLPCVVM

[2] = target: GDP-bound HRAS wild-type protein (Homo sapiens, UniProt P01112); assay: Binding to HRAS by surface plasmon resonance (SPR), Single Cycle Kinetics; settings: SPR, GDP-bound HRAS wild-type protein vs GDP-bound KRAS wild-type protein
Chain of GDP-bound HRAS wild-type protein (P01112 whole entry): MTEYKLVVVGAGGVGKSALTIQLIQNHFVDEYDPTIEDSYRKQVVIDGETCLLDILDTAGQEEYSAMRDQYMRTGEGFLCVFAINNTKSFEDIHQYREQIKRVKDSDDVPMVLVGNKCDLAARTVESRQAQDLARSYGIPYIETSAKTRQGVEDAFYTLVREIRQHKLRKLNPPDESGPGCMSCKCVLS

[3] = tested on: human lung cancer strain NCI-H441;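 also: cell proliferation inhibition after four days measured by CellTiter-Glo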

Structure (SMILES) | NRAS/KRAS (ratio of KD value for NRAS to KD value for KRAS) [1] | HRAS/KRAS (ratio of KD value for HRAS to KD value for KRAS) [2] | pIC50 [3]
CCCN1C(=O)[C@@H]2CCN2C(=O)[C@@H]2CCCCN2C(=O)[C@H]([C@@H](C)CC)NC(=O)[C@H](CC(C)C)N(C)C(=O)C[C@@H](C(=O)N2CCOCC2)N(C)C(=O)[C@H](C2CCCC2)N(C)C(=O)C2(CCCC2)NC(=O)[C@@H]2CCCN2C(=O)[C@H](CCc2ccc(C(F)(F)F)c(Cl)c2)NC(=O)CN(C)C(=O)[C@@H]1Cc1ccc(C(F)(F)F)cc1 [PP0077] ([NMeL]I[Pip][Aze][NPrPhe(4-CF3)][Sar][hPhe(3-Cl-4-CF3)]P[Ac5c][NMeGly(cPent)][NMeD]-Morpholide; lactam N-11) | C (A compound having a KD ratio of 0.1 or more and less than 3 is denoted as C) | B (a compound having 3 or more and less than 10 is denoted as B) | 8.28
CC[C@H](C)[C@@H]1NC(=O)[C@H](CC(C)C)N(C)C(=O)C[C@@H](C(=O)N2CCOCC2)N(C)C(=O)[C@H](C2CCCC2)N(C)C(=O)C2(CCCC2)NC(=O)[C@@H]2CCCN2C(=O)[C@H](CCc2ccc(C(F)(F)F)c(Cl)c2)NC(=O)CN(C)C(=O)[C@H](Cc2ccc(C)cc2)N(CCC(C)(C)C)C(=O)[C@@H]2CCN2C(=O)[C@H](C)N(C)C1=O [PP0087] ([NMeL]I[NMeA][Aze][X34][Sar][hPhe(3-Cl-4-CF3)]P[Ac5c][NMeGly(cPent)][NMeD]-Morpholide; lactam N-11) | C (A compound having a KD ratio of 0.1 or more and less than 3 is denoted as C) | C (A compound having a KD ratio of 0.1 or more and less than 3 is denoted as C) | 7.62
CC[C@H](C)[C@@H]1NC(=O)[C@H](CC(C)C)N(C)C(=O)C[C@@H](C(=O)N2CCOCC2)N(C)C(=O)[C@H](C2CCCC2)N(C)C(=O)C2(CCCC2)NC(=O)[C@@H]2CCCN2C(=O)[C@H](CCc2ccc(C(F)(F)F)c(Cl)c2)NC(=O)CN(C)C(=O)[C@H](Cc2ccc(C(F)(F)F)cc2)N(CCC(C)(C)C)C(=O)[C@@H]2CCN2C(=O)[C@H](C)N(C)C1=O [PP0113] ([NMeL]I[NMeA][Aze][X47][Sar][hPhe(3-Cl-4-CF3)]P[Ac5c][NMeGly(cPent)][NMeD]-Morpholide; lactam N-11) | C (A compound having a KD ratio of 0.1 or more and less than 3 is denoted as C) | B (a compound having 3 or more and less than 10 is denoted as B) | 8.15
CCCN1C(=O)CN(C)C(=O)[C@@H]2CCN2C(=O)[C@H]([C@@H](C)CC)NC(=O)[C@H](CC(C)C)N(C)C(=O)C[C@@H](C(=O)N2CCOCC2)N(C)C(=O)[C@H](C2CCCC2)N(C)C(=O)C2(CCCC2)NC(=O)[C@@H]2CCCN2C(=O)[C@H](CCc2ccc(C(F)(F)F)c(Cl)c2)NC(=O)CN(C)C(=O)[C@@H]1Cc1ccc(C(F)(F)F)cc1 [PP0158] ([NMeL]I[Aze][Sar][NPrPhe(4-CF3)][Sar][hPhe(3-Cl-4-CF3)]P[Ac5c][NMeGly(cPent)][NMeD]-Morpholide; lactam N-11) | A (a compound having 10 or more and less than 20 is denoted as A) | B (a compound having 3 or more and less than 10 is denoted as B) | 7.81
CCCN1C(=O)[C@@H]2CCN2C(=O)[C@@H]2CCN2C(=O)[C@H]([C@@H](C)CC)NC(=O)[C@H](CC(C)C)N(C)C(=O)C[C@@H](C(=O)N2CCOCC2)N(C)C(=O)[C@H](C2CCCC2)N(C)C(=O)C2(CCCC2)NC(=O)[C@@H]2CCCN2C(=O)[C@H](CCc2ccc(C(F)(F)F)c(Cl)c2)NC(=O)CN(C)C(=O)[C@@H]1Cc1ccc(C(F)(F)F)cc1 [PP0168] ([NMeL]I[Aze][Aze][NPrPhe(4-CF3)][Sar][hPhe(3-Cl-4-CF3)]P[Ac5c][NMeGly(cPent)][NMeD]-Morpholide; lactam N-11) | C (A compound having a KD ratio of 0.1 or more and less than 3 is denoted as C) | B (a compound having 3 or more and less than 10 is denoted as B) | 7.58
CCCN1C(=O)[C@@H]2CCN2C(=O)[C@H](Cc2ccccc2)N(C)C(=O)[C@H]([C@@H](C)CC)NC(=O)[C@H](CC(C)C)N(C)C(=O)C[C@@H](C(=O)N2CCOCC2)N(C)C(=O)[C@H](C2CCCC2)N(C)C(=O)C2(CCCC2)NC(=O)[C@@H]2CCCN2C(=O)[C@H](CCc2ccc(C(F)(F)F)c(Cl)c2)NC(=O)CN(C)C(=O)[C@@H]1Cc1ccc(C(F)(F)F)cc1 [PP0209] ([NMeL]I[NMeF][Aze][NPrPhe(4-CF3)][Sar][hPhe(3-Cl-4-CF3)]P[Ac5c][NMeGly(cPent)][NMeD]-Morpholide; lactam N-11) | C (A compound having a KD ratio of 0.1 or more and less than 3 is denoted as C) | C (A compound having a KD ratio of 0.1 or more and less than 3 is denoted as C) | 6.25
